In patent US20250368627A1, “PYRAZOLESULFONAMIDES AS ANTITUMOR AGENTS” (Peloton Therapeutics, Inc., a fully owned subsidiary of …, priority 2019, published 2025) one finds IC50 and EC50 data, which are given here for 31 compounds.

For assay [1], the target named is T1, DDB1DB/DCAF15 and RBM39 R1R2 complex (Homo sapiens, UniProt Q14498+Q66K64).
T1 construct: Amino acids 150 to 331 of RBM39 were cloned into pGEX4T3; GST (from vector pGEX4T3); TEV cleavage site (N); made in house; host or cells: DDB1DB/His-DCAF15: baculovirus/Sf9 co-expression; RBM39 R1R2: E. coli (pGEX4T3)
In words: DCAF15 RBM39 Complex Formation Assay (FRET). The class given is binding. As to conditions: FRET ratio Em 665/Em 615, incubated overnight at 4° C. The essentials:
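Ternary complex formation read by TR-FRET (Em 665/615, excitation 340 nm) after overnight incubation at 4° C of 20 nM baculovirus DDB1DB/His-DCAF15 and 50 nM E. coli RBM39 RRM1-RRM2 FLAG fragment with 14-point, 3-fold compound dilutions from 1 μM; EC50 from 4-parameter fit.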

The subject of assay [2] is HCT116 human colorectal carcinoma cells. In words: CellTiter-Glo Luminescent Cell Viability Assay. As to conditions: HCT-116, 72 h, 3 days. It counts as cell-based. A digest of the protocol: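 CellTiter-Glo luminescence gave viability after 3 days of compound exposure in HCT116 cells grown in DMEM/10% FBS. Final concentrations ran from 5 to 0.0002 […] in 1:3 steps, each in triplicate, with IC50 derived from the curves.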
(In general: Cellular ATP, detected with luciferase, serves as a proxy for viable cell number.)

Molecules are shown by their SMILES. pEC50, pIC50: −log10 of the molar value. Where only a bound is given, the exact number is not on record here.

T1 sequence (Q66K64 whole entry, the tested form may be a part): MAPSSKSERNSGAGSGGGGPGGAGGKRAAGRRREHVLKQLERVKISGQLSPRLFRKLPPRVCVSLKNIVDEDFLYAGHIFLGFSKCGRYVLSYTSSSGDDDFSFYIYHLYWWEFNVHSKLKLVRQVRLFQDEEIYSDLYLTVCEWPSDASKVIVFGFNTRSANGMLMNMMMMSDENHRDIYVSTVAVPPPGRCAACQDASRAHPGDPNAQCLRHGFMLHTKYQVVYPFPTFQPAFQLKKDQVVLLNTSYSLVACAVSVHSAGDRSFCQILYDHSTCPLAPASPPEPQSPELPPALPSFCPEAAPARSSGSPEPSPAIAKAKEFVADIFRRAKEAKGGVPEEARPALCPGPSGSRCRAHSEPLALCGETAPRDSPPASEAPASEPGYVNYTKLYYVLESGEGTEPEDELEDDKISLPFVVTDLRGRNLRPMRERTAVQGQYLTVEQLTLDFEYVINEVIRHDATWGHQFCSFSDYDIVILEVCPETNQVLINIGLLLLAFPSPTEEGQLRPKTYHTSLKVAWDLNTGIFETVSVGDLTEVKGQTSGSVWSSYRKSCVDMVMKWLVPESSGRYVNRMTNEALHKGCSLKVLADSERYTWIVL
T1 sequence (Q14498 150-331): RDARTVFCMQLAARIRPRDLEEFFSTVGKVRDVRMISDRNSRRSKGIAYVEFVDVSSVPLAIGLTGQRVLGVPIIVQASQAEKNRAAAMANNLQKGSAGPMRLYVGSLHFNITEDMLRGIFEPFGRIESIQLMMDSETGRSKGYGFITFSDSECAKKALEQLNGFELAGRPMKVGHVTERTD
T1 sequence (Q16531 with tags, fused parts or gaps DEL396-708 partner): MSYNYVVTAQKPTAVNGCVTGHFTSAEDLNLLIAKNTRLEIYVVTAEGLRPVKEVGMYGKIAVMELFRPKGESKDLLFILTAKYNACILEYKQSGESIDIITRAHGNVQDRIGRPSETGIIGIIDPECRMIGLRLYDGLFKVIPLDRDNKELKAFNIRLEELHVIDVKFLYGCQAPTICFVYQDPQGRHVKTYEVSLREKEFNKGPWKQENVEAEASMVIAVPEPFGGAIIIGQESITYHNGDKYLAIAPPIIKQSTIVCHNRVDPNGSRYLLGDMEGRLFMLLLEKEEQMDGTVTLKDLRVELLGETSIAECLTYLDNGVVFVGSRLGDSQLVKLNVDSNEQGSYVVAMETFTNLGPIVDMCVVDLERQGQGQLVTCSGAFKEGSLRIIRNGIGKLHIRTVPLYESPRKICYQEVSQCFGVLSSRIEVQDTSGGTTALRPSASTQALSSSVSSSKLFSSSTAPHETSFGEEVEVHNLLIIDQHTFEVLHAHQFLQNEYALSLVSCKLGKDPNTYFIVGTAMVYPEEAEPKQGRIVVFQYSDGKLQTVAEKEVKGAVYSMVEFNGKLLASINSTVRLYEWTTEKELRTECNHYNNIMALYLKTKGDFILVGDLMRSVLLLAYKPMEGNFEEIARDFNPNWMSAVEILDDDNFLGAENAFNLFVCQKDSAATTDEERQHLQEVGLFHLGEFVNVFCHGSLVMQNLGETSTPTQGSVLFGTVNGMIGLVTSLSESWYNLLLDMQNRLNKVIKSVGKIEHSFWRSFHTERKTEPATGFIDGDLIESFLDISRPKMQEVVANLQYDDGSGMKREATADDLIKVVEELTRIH

On to `COC1CC(n2cc(S(=O)(=O)Nc3ccc(Cl)c4c(C#N)c[nH]c34)cn2)C1` (centres unmarked) [Compound 189, N-(4-chloro-3-cyano-1H-indol-7-yl)-1-(3-methoxycyclobutyl)pyrazole-4-sulfonamide], for which the pIC50 in assay [1] was above 6.60. Besides, the pEC50 in assay [2] was 6.00 to 6.60.

For the compound `COC1CC(n2cc(S(=O)(=O)Nc3cccc4c(Cl)c[nH]c34)cn2)C1` (centres unmarked) [Compound 190, N-(3-chloro-1H-indol-7-yl)-1-(3-methoxycyclobutyl)pyrazole-4-sulfonamide], in assay [1], the negative-log IC50 (pIC50) was above 6.60. Further, the pEC50 in assay [2] was 6.00 to 6.60.

Consider `N#Cc1c[nH]c2c(NS(=O)(=O)c3cnn(C4(CO)CCC4)c3)ccc(Cl)c12` [Compound 191, N-(4-chloro-3-cyano-1H-indol-7-yl)-1-[1-(hydroxymethyl)cyclobutyl]pyrazole-4-sulfonamide], for which the pIC50 in assay [1] is above 6.60. In addition, in assay [2], the pEC50 is above 6.60.

For `CC(C)(O)Cn1cc(S(=O)(=O)Nc2ccc(F)c3c(C#N)c[nH]c23)cn1` [Compound 192, N-(3-cyano-4-fluoro-1H-indol-7-yl)-1-(2-hydroxy-2-methyl-propyl)pyrazole-4-sulfonamide], in assay [1], the negative-log IC50 (pIC50) is above 6.60. In addition, the pEC50 in assay [2] was below 6.00.

With `Cc1ccc(NS(=O)(=O)c2cnn([C@H]3C[C@@H](O)C3)c2)c2[nH]cc(C#N)c12` [Compound 193, N-(3-cyano-4-methyl-1H-indol-7-yl)-1-(3-hydroxycyclobutyl)pyrazole-4-sulfonamide], in assay [1], the pIC50 was above 6.60. Further, in assay [2], the pEC50 was 6.00 to 6.60.

Take `O=S(=O)(Nc1cccc2c(Cl)c[nH]c12)c1cnn([C@H]2C[C@@H](O)C2)c1` [Compound 194, N-(3-chloro-1H-indol-7-yl)-1-(3-hydroxycyclobutyl)pyrazole-4-sulfonamide]: the pIC50 in assay [1] was above 6.60. For the same compound, the pEC50 in assay [2] was below 6.00.

On to `N#Cc1c[nH]c2c(NS(=O)(=O)c3cnn(CC4(CO)CC4)c3)ccc(Cl)c12` [Compound 195, N-(4-chloro-3-cyano-1H-indol-7-yl)-1-[[1-(hydroxymethyl)cyclopropyl]methyl]pyrazole-4-sulfonamide], for which the pIC50 in assay [1] is above 6.60. Also, the negative logarithm of the EC50 (pEC50) in assay [2] is 6.00 to 6.60.

Regarding `C[C@H](O)Cn1cc(S(=O)(=O)Nc2ccc(Cl)c3c(C#N)c[nH]c23)cn1` [Compound 196, N-(4-chloro-3-cyano-1H-indol-7-yl)-1-[(2S)-2-hydroxypropyl]pyrazole-4-sulfonamide], the pIC50 in assay [1] was above 6.60. Besides, the pEC50 in assay [2] is 6.00 to 6.60.

In the case of `C[C@@H](O)Cn1cc(S(=O)(=O)Nc2ccc(Cl)c3c(C#N)c[nH]c23)cn1` [Compound 197, N-(4-chloro-3-cyano-1H-indol-7-yl)-1-[(2R)-2-hydroxypropyl]pyrazole-4-sulfonamide], the pIC50 in assay [1] is above 6.60. The pEC50 in assay [2] is 6.00 to 6.60.

Regarding `Cc1ccc(NS(=O)(=O)c2cnn(C(C)(C)CO)c2)c2[nH]cc(C#N)c12` [Compound 198, N-(3-cyano-4-methyl-1H-indol-7-yl)-1-(2-hydroxy-1,1-dimethyl-ethyl)pyrazole-4-sulfonamide], in assay [1], the negative-log IC50 (pIC50) is above 6.60. Also, in assay [2], the pEC50 was above 6.60.

For the compound `CC(C)(O)Cn1cc(S(=O)(=O)Nc2ccc(Cl)c3c(C#N)c[nH]c23)c(F)n1` [Compound 204, N-(4-chloro-3-cyano-1H-indol-7-yl)-3-fluoro-1-(2-hydroxy-2-methyl-propyl)pyrazole-4-sulfonamide], the pIC50 in assay [1] was above 6.60. In addition, in assay [2], the pEC50 was below 6.00.

On to `Cc1ccc(NS(=O)(=O)c2cn(CC(C)(C)O)nc2F)c2[nH]cc(C#N)c12` [Compound 205, N-(3-cyano-4-methyl-1H-indol-7-yl)-3-fluoro-1-(2-hydroxy-2-methyl-propyl)pyrazole-4-sulfonamide], for which the pIC50 in assay [1] is above 6.60. Further, the pEC50 in assay [2] is 6.00 to 6.60.

Take `CC(C)(O)Cn1cc(S(=O)(=O)Nc2ccc(F)c3c(C#N)c[nH]c23)c(F)n1` [Compound 206, N-(3-cyano-4-fluoro-1H-indol-7-yl)-3-fluoro-1-(2-hydroxy-2-methyl-propyl)pyrazole-4-sulfonamide]: in assay [1], the pIC50 is above 6.60. For the same compound, in assay [2], the negative logarithm of the EC50 (pEC50) was below 6.00.

In the case of `Cc1ccc(NS(=O)(=O)c2cnn([C@H](C)CO)c2)c2[nH]cc(C#N)c12` [Compound 207, (R)—N-(3-cyano-4-methyl-1H-indol-7-yl)-1-(1-hydroxypropan-2-yl)-1H-pyrazole-4-sulfonamide], in assay [1], the negative logarithm of the IC50 (pIC50) is above 6.60. For the same compound, the pEC50 in assay [2] was above 6.60.

`C[C@H](CO)n1cc(S(=O)(=O)Nc2ccc(Cl)c3c(C#N)c[nH]c23)cn1` [Compound 208, (R)—N-(4-chloro-3-cyano-1H-indol-7-yl)-1-(1-hydroxypropan-2-yl)-1H-pyrazole-4-sulfonamide]: in assay [1], the pIC50 is above 6.60. In addition, the pEC50 in assay [2] is 6.00 to 6.60.

As for `N#Cc1c[nH]c2c(NS(=O)(=O)c3cnn(CCCO)c3)ccc(Cl)c12` [Compound 209, N-(4-chloro-3-cyano-1H-indol-7-yl)-1-(3-hydroxypropyl)-1H-pyrazole-4-sulfonamide], the pIC50 in assay [1] was above 6.60. Further, in assay [2], the pEC50 was 6.00 to 6.60.

Consider `Cc1ccc(NS(=O)(=O)c2cnn(CCCO)c2)c2[nH]cc(C#N)c12` [Compound 210, N-(3-cyano-4-methyl-1H-indol-7-yl)-1-(3-hydroxypropyl)pyrazole-4-sulfonamide], for which the pIC50 in assay [1] is above 6.60. Besides, in assay [2], the pEC50 was 6.00 to 6.60.

Take `N#Cc1c[nH]c2c(NS(=O)(=O)c3cnn(CCCO)c3)ccc(F)c12` [Compound 211, N-(3-cyano-4-fluoro-1H-indol-7-yl)-1-(3-hydroxypropyl)pyrazole-4-sulfonamide]: the pIC50 in assay [1] is above 6.60. Also, in assay [2], the pEC50 is 6.00 to 6.60.

Regarding `C[C@H](CO)n1cc(S(=O)(=O)Nc2ccc(F)c3c(C#N)c[nH]c23)cn1` [Compound 212, (R)—N-(3-cyano-4-fluoro-1H-indol-7-yl)-1-(1-hydroxypropan-2-yl)-1H-pyrazole-4-sulfonamide], the pIC50 in assay [1] is above 6.60. The pEC50 in assay [2] is 6.00 to 6.60.

Consider `C[C@H](C(N)=O)n1cc(S(=O)(=O)Nc2ccc(Cl)c3c(C#N)c[nH]c23)cn1` [Compound 213, (2R)-2-[4-[(4-chloro-3-cyano-1H-indol-7-yl)sulfamoyl]pyrazol-1-yl]propanamide], for which, in assay [1], the pIC50 was above 6.60. Further, the pEC50 in assay [2] was 6.00 to 6.60.

In the case of `N#Cc1c[nH]c2c(NS(=O)(=O)c3cn[nH]c3)ccc(F)c12` [Compound 214, N-(3-cyano-4-fluoro-1H-indol-7-yl)-1H-pyrazole-4-sulfonamide], in assay [1], the pIC50 is above 6.60. In addition, the pEC50 in assay [2] was below 6.00.

For the compound `N#Cc1c[nH]c2c(NS(=O)(=O)c3cnn(C(F)F)c3)ccc(F)c12` [Compound 215, N-(3-cyano-4-fluoro-1H-indol-7-yl)-1-(difluoromethyl)pyrazole-4-sulfonamide], in assay [1], the pIC50 was above 6.60. Also, the pEC50 in assay [2] is 6.00 to 6.60.

In the case of `N#Cc1c[nH]c2c(NS(=O)(=O)c3cnn(CC(F)(F)F)c3)ccc(F)c12` [Compound 216, N-(3-cyano-4-fluoro-1H-indol-7-yl)-1-(2,2,2-trifluoroethyl)pyrazole-4-sulfonamide], in assay [1], the pIC50 is above 6.60. Further, the pEC50 in assay [2] was 6.00 to 6.60.

For the compound `CCn1cc(S(=O)(=O)Nc2ccc(F)c3c(C#N)c[nH]c23)cn1` [Compound 217, N-(3-cyano-4-fluoro-1H-indol-7-yl)-1-ethyl-pyrazole-4-sulfonamide], the pIC50 in assay [1] was above 6.60. In addition, the pEC50 in assay [2] is 6.00 to 6.60.

Turning to `Cc1ccc(NS(=O)(=O)c2cnn(C34CC(C3)C4)c2)c2[nH]cc(C#N)c12` [Compound 218, 1-(3-bicyclo[1.1.1]pentanyl)-N-(3-cyano-4-methyl-1H-indol-7-yl)pyrazole-4-sulfonamide], the pIC50 in assay [1] was above 6.60. Moreover, the pEC50 in assay [2] was 6.00 to 6.60.

With `N#Cc1c[nH]c2c(NS(=O)(=O)c3cnn(C45CC(C4)C5)c3)ccc(F)c12` [Compound 219, 1-(3-bicyclo[1.1.1]pentanyl)-N-(3-cyano-4-fluoro-1H-indol-7-yl)pyrazole-4-sulfonamide], the pIC50 in assay [1] is above 6.60. In addition, the pEC50 in assay [2] was 6.00 to 6.60.

As for `CC(C)(O)CCn1cc(S(=O)(=O)Nc2ccc(Cl)c3c(C#N)c[nH]c23)cn1` [Compound 220, N-(4-chloro-3-cyano-1H-indol-7-yl)-1-(3-hydroxy-3-methyl-butyl)pyrazole-4-sulfonamide], in assay [1], the pIC50 was above 6.60. The negative-log EC50 (pEC50) in assay [2] was 6.00 to 6.60.

Regarding `Cc1ccc(NS(=O)(=O)c2cnn(CCC(C)(C)O)c2)c2[nH]cc(C#N)c12` [Compound 221, N-(3-cyano-4-methyl-1H-indol-7-yl)-1-(3-hydroxy-3-methyl-butyl)pyrazole-4-sulfonamide], the pIC50 in assay [1] was above 6.60. Moreover, the pEC50 in assay [2] was above 6.60.

`CC(C)(O)CCn1cc(S(=O)(=O)Nc2ccc(F)c3c(C#N)c[nH]c23)cn1` [Compound 222, N-(3-cyano-4-fluoro-1H-indol-7-yl)-1-(3-hydroxy-3-methyl-butyl)pyrazole-4-sulfonamide]: the pIC50 in assay [1] was above 6.60. In assay [2], the pEC50 is 6.00 to 6.60.

Turning to `N#Cc1c[nH]c2c(NS(=O)(=O)c3cnn(C45CC(C4)C5)c3)ccc(Cl)c12` [Compound 223, 1-(3-bicyclo[1.1.1]pentanyl)-N-(4-chloro-3-cyano-1H-indol-7-yl)pyrazole-4-sulfonamide], in assay [1], the negative logarithm of the IC50 (pIC50) is above 6.60. Besides, the pEC50 in assay [2] was 6.00 to 6.60.

Take `CC(C)(CO)n1cc(S(=O)(=O)Nc2ccc(F)c3c(C#N)c[nH]c23)cn1` [Compound 224, N-(3-cyano-4-fluoro-1H-indol-7-yl)-1-(2-hydroxy-1,1-dimethyl-ethyl)pyrazole-4-sulfonamide]: the pIC50 in assay [1] is above 6.60. In assay [2], the pEC50 is 6.00 to 6.60.

For orientation: pIC50 means −log10 of the IC50, conventionally taken in molar units. The pEC50 is the EC50 on a negative log10 scale, so that one unit is a factor of ten.
